Values joined by “and” are separate entries in the source; they are usually repeats but may differ in a detail not shown here. Equal entries are not always repeated. Where two headings read alike, the source gives them in different places.
Key:
[1] = system: HBL-100 cells; experiment: Cell cycle analysis (DAPI, flow cytometry), HBL-100; format: cell-based, human; conditions: for Cell cycle of HBL-100, G0/G1 / Cell cycle of HBL-100, G2/M / Cell cycle of HBL-100, S-phase / Cell cycle of HBL-100, subG0/G1: dose = IC50
Method: (§1) The cells were trypsinized and rinsed with the growth medium. Then, the cells were harvested by centrifugation at 500× g for 3 min, and the supernatant was discarded. The cells were washed with PBS (PanEco, Moscow, Russia) twice and centrifuged under similar conditions. The cells were resuspended in 500 μL of PBS, put into centrifuge tubes and fixed by adding 4.5 mL of 70% ethanol dropwise (on ice). The samples were fixed at 4 °C. Overnight, the fixed cells were centrifugally collected (1000× g, 4 °C, 5 min) and washed again with PBS. The cells were finally resuspended in DAPI with 0.1% Triton X-100 in PBS solution (10 μg/mL, Sigma–Aldrich, St. Louis, MO, USA), and stained for 30 min at room temperature in darkness. For each sample, at least 50,000 cells were analyzed using the CytoFlex S flow cytometer (Beckman Coulter, Brea, CA, USA). Cell cycle populations were quantified from DNA histograms with the FlowJo software (ver. X 10.0.7r2, FlowJo Software, San Jose, CA, USA).

[2] = system: PC-3; experiment: MTT cell viability assay, PC-3; format: cell-based, human; conditions: for IC50: Homo sapiens
Text: (§2) Blokhin National Medical Research Center of Oncology (the Ministry of Health of the Russian Federation, Moscow).

[3] = system: HBL-100/Dox cells; experiment: Cell cycle analysis (DAPI, flow cytometry), HBL-100/Dox; format: cell-based, human; conditions: for Cell cycle of HBL-100/Dox, G0/G1 / Cell cycle of HBL-100/Dox, G2/M / Cell cycle of HBL-100/Dox, subG0/G1 / Cell cycle of HBL-100/Dox, S-phase: dose = IC50
Method: as §1

[4] = system: HBL-100 cells; experiment: Western blotting of cytochrome c, cleaved caspase-9 and -8, HBL-100; format: cell-based, human; conditions: 16 h, IC50
Method: The supernatant (cytosol fraction) and mitochondrial pellets were then collected, and protein concentration was determined by UV […] using 1–100 μg/mL BSA as standard curve concentrations (UV-2600i spectrophotometer; Shimadzu, Tokyo, Japan).
Then, the same protein amounts (20.0 µg in each lane) were loaded and separated by 4–20% Mini-PROTEAN TGX Stain-Free Protein Gels (Bio-Rad Laboratories, Hercules, CA, USA), followed by transferring onto polyvinylidene difluoride (PVDF) membranes. The membranes were blocked with 1% (w/v) casein in Tris-buffered saline containing 0.1% Tween-20 (TBS-T), and were incubated overnight with primary antibodies (1:1000) of Cytochrome c (D18C7) Rabbit mAb, Cleaved Caspase-9 (Asp330) (E5Z7N) Rabbit mAb, Cleaved Caspase-8 (Asp374) (18C8) Rabbit mAb, and β-Actin (D6A8) Rabbit mAb (Cell Signaling Technology, Danvers, MA, USA) for cytosol and mitohondrial fractions at 4 °C. The next day, the PVDF membranes were washed thrice in TBS-T and incubated with HRP-conjugated secondary antibodies (1:1000) (Cell Signaling Technology, Danvers, MA, USA) for 1 h at RT. Immunoreactive proteins were detected by Clarity Western ECL Substrate (Bio-Rad Laboratories, Hercules, CA, USA) and then analyzed on the ChemiDoc MP Imaging system (Bio-Rad Laboratories, Hercules, CA, USA). The proteins were quantified by densitometry using Image Lab software (version 6.0; Bio-Rad Laboratories, Hercules, CA, USA). To normalize protein expression data, a blot with β-Actin was used.

[5] = system: MCF-7; experiment: MTT cell viability assay, MCF-7; format: cell-based, human; conditions: for IC50: Homo sapiens, MCF7
Text: as §2

[6] = system: RD TE32; experiment: MTT cell viability assay, RD TE32; format: cell-based, human; conditions: for IC50: Homo sapiens
Text: as §2

[7] = system: HEK293; experiment: MTT cell viability assay, HEK293; format: cell-based; conditions: Homo sapiens
Text: as §2

## COC(=O)[C@]12CC[C@@H](C(C)C)[C@@H]1[C@H]1CC[C@@H]3[C@@](C)(CCC#N)[C@H](C(=O)C(Br)Br)CC[C@@]3(C)[C@]1(C)CC2 [compound 31, 2-Cyano-24,24-dibromo-4-oxo-3,4-seco-3,23-dinorlupan-28-oic acid methyl ester]
[1]; 12 h
  Cell cycle of HBL-100, G0/G1: 59.78±0.94%
  Cell cycle of HBL-100, G2/M: 15.88±0.50%
  Cell cycle of HBL-100, S-phase: 24.35±0.43%
  Cell cycle of HBL-100, subG0/G1: 1.44 ± 0.44%
[1]; 13 h
  Cell cycle of HBL-100, G0/G1: 56.56±0.16%
  Cell cycle of HBL-100, G2/M: 16.70±0.71%
  Cell cycle of HBL-100, S-phase: 26.74±0.54%
  Cell cycle of HBL-100, subG0/G1: 1.74±0.05%
[1]; 14 h
  Cell cycle of HBL-100, G0/G1: 56.69±0.01%
  Cell cycle of HBL-100, G2/M: 16.96±0.16%
  Cell cycle of HBL-100, S-phase: 26.35±0.16%
  Cell cycle of HBL-100, subG0/G1: 1.74±0.18%
[1]; 15 h
  Cell cycle of HBL-100, G0/G1: 57.83±1.04%
  Cell cycle of HBL-100, G2/M: 16.29±0.55%
  Cell cycle of HBL-100, S-phase: 25.88±0.49%
  Cell cycle of HBL-100, subG0/G1: 2.38±0.42%
[1]; 16 h
  Cell cycle of HBL-100, G0/G1: 56.91±0.07%
  Cell cycle of HBL-100, G2/M: 18.83±0.14%
  Cell cycle of HBL-100, S-phase: 24.26±0.08%
  Cell cycle of HBL-100, subG0/G1: 4.89±1.93%
[1]; 17 h
  Cell cycle of HBL-100, G0/G1: 55.78±0.79%
  Cell cycle of HBL-100, G2/M: 18.39±1.04%
  Cell cycle of HBL-100, S-phase: 25.83±0.24%
  Cell cycle of HBL-100, subG0/G1: 3.50±0.42%
[1]; 18 h
  Cell cycle of HBL-100, G0/G1: 56.81±0.03%
  Cell cycle of HBL-100, G2/M: 15.38±0.01%
  Cell cycle of HBL-100, S-phase: 27.81±0.04%
  Cell cycle of HBL-100, subG0/G1: 4.39±0.82%
[1]; 24 h
  Cell cycle of HBL-100, G0/G1: 66.48 ± 1.33%
  Cell cycle of HBL-100, G2/M: 4.43 ± 0.50%
  Cell cycle of HBL-100, S-phase: 29.09±0.89%
  Cell cycle of HBL-100, subG0/G1: 8.22 ± 0.59%
[1]; HBL-100 (parental) cells, 12-24 h, IC50
  effect on cell cycle progression: blocked or slowed down the cell cycle progression through the G0/G1 phase
[2]; PC-3, MTT, 72 h of treatment, read-out: IC50 Values (Mean ± SD)
  IC50: 10.4 ± 1.3 µM
[2]; Table S1, PC-3, read-out: IC50 (mean ± SD)
  IC50: 10.3 ± 1.27 µM
[2]; ratio of IC50 values healthy (HEK293) / PC-3
  Selectivity index (SI): 1.11
[3]; 12 h
  Cell cycle of HBL-100/Dox, G0/G1: 50.93±0.43%
  Cell cycle of HBL-100/Dox, G2/M: 18.38±0.34%
  Cell cycle of HBL-100/Dox, subG0/G1: 4.84 ± 1.48%
[3]; 12 h, listed as MK
  Cell cycle of HBL-100/Dox, S-phase: 30.69 ± 0.99% and 30.69±0.04%
[3]; 13 h
  Cell cycle of HBL-100/Dox, G0/G1: 47.82±0.67%
  Cell cycle of HBL-100/Dox, G2/M: 17.42±0.46%
  Cell cycle of HBL-100/Dox, S-phase: 34.76±0.20%
  Cell cycle of HBL-100/Dox, subG0/G1: 4.89±0.48%
[3]; 14 h
  Cell cycle of HBL-100/Dox, G0/G1: 51.68±1.34%
  Cell cycle of HBL-100/Dox, G2/M: 14.54±0.25%
  Cell cycle of HBL-100/Dox, S-phase: 33.78±1.08%
  Cell cycle of HBL-100/Dox, subG0/G1: 4.87±0.60%
[3]; 15 h
  Cell cycle of HBL-100/Dox, G0/G1: 52.12±1.18%
  Cell cycle of HBL-100/Dox, G2/M: 14.52±1.40%
  Cell cycle of HBL-100/Dox, S-phase: 33.36±2.57%
  Cell cycle of HBL-100/Dox, subG0/G1: 5.06±0.09%
[3]; 16 h
  Cell cycle of HBL-100/Dox, G0/G1: 51.84±0.88%
  Cell cycle of HBL-100/Dox, G2/M: 22.22±1.70%
  Cell cycle of HBL-100/Dox, S-phase: 25.94±2.58%
  Cell cycle of HBL-100/Dox, subG0/G1: 6.55±0.11%
[3]; 17 h
  Cell cycle of HBL-100/Dox, G0/G1: 52.16 ± 1.94%
  Cell cycle of HBL-100/Dox, G2/M: 19.82±0.60%
  Cell cycle of HBL-100/Dox, S-phase: 28.02±1.34%
  Cell cycle of HBL-100/Dox, subG0/G1: 9.08±0.39%
[3]; 18 h
  Cell cycle of HBL-100/Dox, G0/G1: 57.26±1.18%
  Cell cycle of HBL-100/Dox, G2/M: 25.55±1.12%
  Cell cycle of HBL-100/Dox, S-phase: 17.19±2.31%
  Cell cycle of HBL-100/Dox, subG0/G1: 10.42±0.98%
[3]; 24 h
  Cell cycle of HBL-100/Dox, G0/G1: 64.14 ± 0.55%
  Cell cycle of HBL-100/Dox, S-phase: 8.99 ± 0.42%
[3]; 24 h, listed as MK
  Cell cycle of HBL-100/Dox, G2/M: 26.87 ± 1.13% and 26.87±0.13%
  Cell cycle of HBL-100/Dox, subG0/G1: 13.47 ± 2.44% and 13.47±0.18%
[3]; HBL-100/Dox (resistant) cells, 12-24 h, IC50
  effect on cell cycle progression: blocked or slowed down the cell cycle progression through the G0/G1 phase
[4]
  activation of caspase-8: not observed
  activation of caspase-9: sequential activation of initiator caspase-9
  cytochrome c release: provoked the release of cytochrome c from mitochondria to cytosol
[5]; MCF-7, MTT, 72 h of treatment, read-out: IC50 Values (Mean ± SD)
  IC50: 7.1 ± 0.7 µM
[5]; Table S1, MCF-7, read-out: IC50 (mean ± SD)
  IC50: 7.06 ± 0.72 µM
[5]; ratio of IC50 values healthy (HEK293) / MCF-7
  Selectivity index (SI): 1.62
[6]; RD TE32, MTT, 72 h of treatment, read-out: IC50 Values (Mean ± SD)
  IC50: 0.7 ± 0.1 µM
[6]; Table S1, RD TE32, read-out: IC50 (mean ± SD)
  IC50: 0.66 ± 0.04 µM
[6]; ratio of IC50 values healthy (HEK293) / RD TE32
  Selectivity index (SI): 16.43
[7]; HEK293, MTT, 72 h of treatment, read-out: IC50 Values (Mean ± SD)
  IC50: 11.5 ± 0.6 µM
[7]; Table S1, HEK293, read-out: IC50 (mean ± SD)
  IC50: 11.5 ± 0.56 µM

— article PMC10298530, “Synthesis and Anticancer Activity of A-Ring-Modified Derivatives of Dihydrobetulin” (International Journal of Molecular Sciences, 2023)
